Laboratory results reported in patent US7803764B2, “Amphipathic glycopeptides” (The Arizona Board of Regents on Behalf of the University of …, priority 2004, dated 2010).
“Also recorded” adds a separate entry of the source.

What was measured:
δ opioid receptor = δ opioid receptor (Homo sapiens, UniProt P41143); experiment: opioid receptor binding, δ receptor
μ opioid receptor = μ opioid receptor (Homo sapiens, UniProt P35372); experiment: opioid receptor binding, μ receptor
[1] = in vivo antinociception after i.c.v. administration; set-up: species or system mice; settings: i.c.v., mice, antinociception
[2] = Plasmon-waveguide resonance (PWR) binding to lipid bilayer; settings: egg PC bilayer, 25° C., read-out: dissociation constant KD for lipid bilayer
Description: Plasmon-waveguide resonance (PWR) spectroscopy. The PWR instrument used for these experiments was Aviv Beta prototype version device obtained from Proterion Corp. (Piscataway, N.J.) having a spectral resolution of 1 millidegree. Self-assembled so lid-supported lipid membranes were prepared according to the method used for the formation of freely suspended lipid bilayers.^62 This involves spreading a small amount of lipid solution across an orifice in a Teflon sheet that separates the thin dielectric film (SiO2) from the aqueous phase. The hydrophilic surface of hydrated SiO2 attracts the polar groups of the lipid molecules, thus inducing an initial orientation of the lipid molecules, with the hydrocarbon chains pointing toward the droplet of excess lipid solution. The next steps of bilayer formation, induced by adding aqueous buffer to the sample compartment of the PWR cell, involve a thinning process and the formation of a plateau-Gibbs border of lipid solution that anchors the membrane to the Teflon spacer. In the present experiments, the lipid films were formed from a solution containing 5 mg/ml egg phosphatidylcholine (PC) in squalene/butanol/methanol (0.05:9.5:0.5, v/v). […] Aliquots of the glycosylated peptides, dissolved in deionized water, were injected stepwise in the PWR cell sample and the signal monitored until equilibrium was reached (PWR signal steady). […]

[3] = helicity by circular dichroism; type: physicochemical
Description: Circular Dichroism. All of the circular dichroism experiments were carried out on Aviv Associates model 60DS using an Endcal Model RTE4DD water circulator as a temperature-control vehicle. The instrument was calibrated by using d-10-camphorsulphonic acid. The spectra were recorded between 200 and 250 nm by using the continuous mode with a 1.5 nm bandwidth, a three second response and a scan step of 0.5 nm in a cell with a path length of 0.1 cm. Three or five scans were accumulated and averaged for each spectrum. Glycopeptide stock solutions were prepared by weighing the required amount, using Cahn/Ventron Instruments Model 21 automatic analytical electrobalance, to make 1 mL of a 0.5-1.0 mM solution and the pH was adjusted to the desired value. Samples were prepared by diluting the stock solution to 70-80 μM. All observed spectra were baseline-subtracted and smoothed by adjacent average of 5 points using Microcal Origin Ver. 5.0 software (Microcal Software Inc, USA). The molar ellipticities were determined using the formula [θ]=[θ]obs·(MRW)/10·l·C, where [θ]obs observed ellipticity in millidegrees, MRW is the mean residue weight, l is the cell path length in centimeters and C is the glycopeptide concentration in mg/mL. The percent α-helicity was determined by using the formula % helix=[θ]n→π*/−40,000 (1−2.5/n)·100, where n represents the number of amide bonds (including the C-terminal amide) in the glycopeptide and [θ]n→π** is molar ellipticity of n→π* transition band at 222 nm.^55
Conformational Analysis by CD. Circular dichroism (CD) is a powerful and simple tool for identifying secondary structure in both peptides and proteins.^64 All the peptides were subjected to CD analysis in H2O, TFE-H2O mixtures, SDS micelles and phospholipid bicelles. In H2O, a negative band near 200 nm is observed that arises from the π→π* electronic transition and is typical of random coil peptides. […] This behavior is explained as nascent helices.^65 In these nascent helices, helix CD signals could be induced by the addition of TFE.^66 All the glycopeptides gave an increased helix CD signal in TFE. The percentage of helicity increases as TFE concentration increases, but reached a maximum at 30% TFE. The increase in helicity in TFE can be attributed to decreased competition by H2O for hydrogen bonding to the backbone amides. […] In the presence of SDS micelles and anionic bicelles, the band at 200 nm underwent a red shift (higher value) and an additional shoulder appears around 222 nm as a result of the n→π* transition. […] The negative maxima at 222 nm (n→π* transition band) is used to calculate the helical content of polypeptides and proteins. The accepted value for a peptide that is 100% helical is approximately −35,000. It was observed that changes in amplitude of the bands up to 30% depend on length of helix.^67 The amplitude increases as α-helical chain length increases. Therefore, one has to consider the importance of chain-length dependence of the α-helix CD in the quantitative treatment of helix content in proteins and polypeptides. The percentage of helicity is independent of SDS concentration and pH (data not shown). In the presence of zwitterionic bicelles all of the glycopeptides yielded CD spectra similar to that observed in H2O, but anionic bicelles forced them to become more helical. The intensities of the [θ]π→π* band and the [θ]n→π* band are expected to be almost equal for a perfect α-helical peptide. […] A modest blue shift and reduced intensity for the [θ]n→π* transition bands are observed for all the glycopeptides in TFE. […] The glycopeptides 9 (Pro/Glc) and 12 (Pro/Lactose), which differ only by the sugar moiety attached, adopt perfect helices in the presence of SDS micelles and in anionic bicelles. The disaccharide increased the percentage of helicity in all the solvents, relative to the monosaccharide. […] It is remarkable to note that a single amino acid mutation at position 6 produced profound changes in the CD spectra. […]

[4] = helicity by NMR αCH chemical shift index; type: physicochemical
Description: NMR Spectroscopy. All NMR spectra were recorded on a Bruker DRX600 600 MHz spectrometer. Glycopeptide concentration for the NMR experiments varied from 2-3 mM. The glycopeptides were prepared in TFE-water solution by dissolving the peptide in 0.6 ml solution of a premixed 30% TFE-water mixture. The micelle samples were prepared by dissolving the glycopeptide and 100 equivalent of perdeuterated SDS in 0.6 ml of H2O/D2O (9:1 ratio by volume). Bicelles were produced from deuterated phospholipids. The zwitterionic bicelles were made by mixing the short chain phospholipid dihexanoyl-sn-glycero-3-phosphatidylcholine-d22 (DHPC) and the long chain 1,2-dimyristoyl-sn-glycero-3-phosphatidylcholine-d54 (DMPC) in the molar ratio of 2:1 in H2O. The […] were prepared by substituting 10 mol % of 1,2-dimyristoyl-sn-glycero-3-phospho-1-glycerol-d54 (DMPG) for DMPC. The glycopeptide to bicelle ratio was 1:25. After the glycopeptide was added to the bicelle solution, the system was submitted to a series o f three freeze/thaw/slight vortex shaking cycles. The pH of the each sample was adjusted to 4.5 by using DCl or NaOD as necessary. TSP (3-(trimethylsilyl)-d4-propionic acid) was added as an internal standard. The experiments in F3CCD2OD/H2O mixtures were at 293 K and for experiments in micelles/bicelles were at 298 or 311 K. Two-dimensional double quantum filtered correlation (DQF-COSY), rotating-frame Overhauser enhancement^56 (ROESY), Nuclear Overhauser enhancement^57 (NOESY), and total correlation spectra^58 (TOCSY) were acquired using standard pulse sequences and processed using XWINNMR (Bruker Inc) and FELIX2000 (Accelrys Inc, San Diego, Calif.), Mixing times for TOCSY spectra were either 80 or 100 ms. Mixing times for ROESY spectra were 150 or 250 ms, and for NOESY spectra were 200 or 300 ms. All experiments were 750 increments in t1, 16/32/64 scans each, 1.5 s relaxation delay, size 2 or 4K, and the spectral processing was with shifted sine bell window multiplications in both dimensions.
αCH Chemical Shift Index. […] At this point there is no accepted random coil αCH values for glycosylated serine, CSI values for this position are uncertain. The conformational shift values for all solvents were obtained using the random coil values described by Wright and co-workers.^72 Although, these reference shifts were obtained at pH=5.0 at 4.2° C., they appear to be very insensitive to the conditions, as very small deviations (±0.04) were observed when random coil values are obtained at pH=7.0 at 35° C. by Wuthrich and co-workers.^68 The quantification of secondary structure based on αCH chemical shifts is neglected in the literature because various contributions cannot be strictly accounted for, such as electrostatic effects, ring current shifts, and other magnetic anisotropies. However, it is possible to make qualitative comparison of helical content between closely related (glyco)peptides. Since the 3rd generation glycopeptides differ by only one amino acid at position 6, the helical content was obtained based on the αCH chemical shift values (Table 3). The method described by Gierasch and co-workers^69a was used. First, the average conformational shift was calculated for each glycopeptide by adding all upfield shifts in the helical regions and dividing by the total number of peptide bonds. Then, to obtain the overall helical content for each glycopeptide, the average conformational shift was divided by 0.35 ppm, which was assigned for 100% helicity. Since, there are no random coil values available for β-Alanine and glycosylated serine residues, they were not included in the calculation. The helicogenic Aib residue lacks an α-proton, and there was no correction included in the calculation for the helicity provided by Aib residue. The helical content obtained by this method correlated with the helical content obtained by CD. […]

[5] = blood-brain barrier uptake / penetration; settings: mice
[6] = solvent Bicelle A (anionic bicelles)

Sequence of μ opioid receptor (P35372 whole entry): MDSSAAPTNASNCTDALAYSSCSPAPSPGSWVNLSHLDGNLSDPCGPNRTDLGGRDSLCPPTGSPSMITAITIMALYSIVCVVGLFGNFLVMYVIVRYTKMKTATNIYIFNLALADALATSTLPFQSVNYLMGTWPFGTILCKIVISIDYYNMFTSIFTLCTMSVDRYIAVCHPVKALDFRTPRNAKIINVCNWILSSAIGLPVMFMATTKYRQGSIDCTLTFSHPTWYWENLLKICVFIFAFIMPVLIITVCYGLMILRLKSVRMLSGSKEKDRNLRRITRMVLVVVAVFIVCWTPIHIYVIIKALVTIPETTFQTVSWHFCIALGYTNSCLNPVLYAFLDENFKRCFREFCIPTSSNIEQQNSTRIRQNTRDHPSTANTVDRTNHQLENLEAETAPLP
Sequence of δ opioid receptor (P41143 whole entry): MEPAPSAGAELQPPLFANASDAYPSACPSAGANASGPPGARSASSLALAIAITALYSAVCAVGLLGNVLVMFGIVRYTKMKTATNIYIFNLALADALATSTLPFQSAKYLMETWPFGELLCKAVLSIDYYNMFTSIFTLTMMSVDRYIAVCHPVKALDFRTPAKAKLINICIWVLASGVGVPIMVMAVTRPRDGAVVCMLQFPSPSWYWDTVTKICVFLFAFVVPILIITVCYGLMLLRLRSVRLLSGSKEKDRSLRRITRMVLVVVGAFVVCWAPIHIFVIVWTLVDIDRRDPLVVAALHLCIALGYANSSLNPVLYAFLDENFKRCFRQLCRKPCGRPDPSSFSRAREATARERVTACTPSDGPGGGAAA

Row | SMILES | IC50 (δ opioid receptor) [µM] | IC50 (μ opioid receptor) [µM] | A50 i.c.v. [1] [nmol] | Kd [2] [µM] | % α-helicity by CD [3, 6] [%] | % α-helicity by CD ([3]; solvent H2O) [%] | % α-helicity by CD ([3]; solvent SDS micelles) [%] | % α-helicity by CD ([3]; solvent TFE) [%] | % α-helicity by NMR ([4]; solvent Bicelle A) [%] | % α-helicity by NMR ([4]; solvent H2O) [%] | % α-helicity by NMR ([4]; solvent SDS micelles) [%] | % α-helicity by NMR ([4]; solvent TFE) [%] | BBB uptake [5] | blood brain barrier penetration (in words) [5]
1 | CC(C)C[C@H](NC(=O)[C@H](CO[C@@H]1O[C@H](CO)[C@@H](O)[C@H](O)[C@H]1O)NC(=O)[C@H](CCCCN)NC(=O)[C@H](CC(C)C)NC(=O)[C@H](C)NC(=O)[C@H](CCCCN)NC(=O)[C@H](CCC(=O)O)NC(=O)C(C)(C)NC(=O)[C@H](CC(C)C)NC(=O)[C@H](CC(N)=O)NC(=O)[C@@H]1CCCN1C(=O)[C@H](CC(C)C)NC(=O)[C@H](Cc1ccccc1)NC(=O)CNC(=O)[C@H](NC(=O)[C@@H](N)Cc1ccc(O)cc1)[C@H](C)O)C(N)=O (relative stereo) [Glycopeptide 9, YtGFLPNLBEKALKS*L] | 0.00615 | 0.0908 | 0.030 | 0.007 to 0.008 | 25 | >1 | 24 | 18 | 44 | 20 | 46 | 30 | 0.390 microliters per min per gram of cortex | efficiently cross the blood brain barrier; also recorded: much better BBB penetration rates; also recorded: best BBB penetration
2 | CC(C)C[C@H](NC(=O)[C@H](CO[C@@H]1O[C@H](CO)[C@@H](O)[C@H](O)[C@H]1O)NC(=O)[C@H](CCCCN)NC(=O)[C@H](CC(C)C)NC(=O)[C@H](C)NC(=O)[C@H](CCCCN)NC(=O)[C@H](CCC(=O)O)NC(=O)C(C)(C)NC(=O)[C@H](CC(C)C)NC(=O)[C@H](CC(N)=O)NC(=O)CNC(=O)CNC(=O)[C@H](CC(C)C)NC(=O)[C@H](Cc1ccccc1)NC(=O)CNC(=O)[C@H](NC(=O)[C@@H](N)Cc1ccc(O)cc1)[C@H](C)O)C(N)=O (relative stereo) [Glycopeptide 11, YtGFLGGNLBEKALKS*L] | 0.0325 | 0.053 | 0.030 | 30 | 17 | >1 | 17 | 18 |  | 19 | 39 | 28 | 0.002 microliters per min per gram of cortex | did not; also recorded: low BBB penetration rates
